# Data reported in ChEMBL document CHEMBL4613209, “Quinolone hybrids and their anti-cancer activities: An overview” (Eur J Med Chem, 2019).
# Tested on: Hep 3B2
# Assay: Antiproliferative activity against human Hep3B cells after 24 to 72 hrs by MTT assay
# Type: functional, cell-based
row,SMILES,IC50 [µM]
1,CCn1cc(-c2nnc(SCC(=O)N/N=C/c3ccccc3O)o2)c(=O)c2cc(F)c(N3CCN(C)CC3)cc21,1.4 to 52.3
2,CCn1cc(-c2nnc(SCC(=O)N/N=C/c3ccccc3C(=O)O)o2)c(=O)c2cc(F)c(N3CCN(C)CC3)cc21,1.4 to 52.3
3,CCn1cc(-c2nnc(SCC(=O)N/N=C/c3ccc4c(c3)OCO4)o2)c(=O)c2cc(F)c(N3CCN(C)CC3)cc21,1.4 to 52.3
4,CCn1cc(-c2nnc(SCC(=O)N/N=C/c3ccccc3OC)o2)c(=O)c2cc(F)c(N3CCN(C)CC3)cc21,1.4 to 52.3
5,CCn1cc(-c2nnc(SCC(=O)N/N=C/c3ccc(Cl)cc3)o2)c(=O)c2cc(F)c(N3CCN(C)CC3)cc21,1.4 to 52.3
6,CCn1cc(-c2nnc(SCC(=O)N/N=C/c3cc(OC)c(OC)c(OC)c3)o2)c(=O)c2cc(F)c(N3CCN(C)CC3)cc21,1.4 to 52.3
7,CCn1cc(-c2nnc(SCC(=O)N/N=C/c3ccc(C(=O)O)cc3)o2)c(=O)c2cc(F)c(N3CCN(C)CC3)cc21,1.4 to 52.3
8,CCn1cc(-c2nnc(SCC(=O)N/N=C/c3ccc(C#N)cc3)o2)c(=O)c2cc(F)c(N3CCN(C)CC3)cc21,1.4 to 52.3
9,CCn1cc(-c2nnc(SCC(=O)N/N=C/c3ccc(OC)cc3)o2)c(=O)c2cc(F)c(N3CCN(C)CC3)cc21,1.4 to 52.3
10,CCn1cc(-c2nnc(SCC(=O)N/N=C/c3ccc(F)cc3)o2)c(=O)c2cc(F)c(N3CCN(C)CC3)cc21,1.4 to 52.3

# Tested on: SMMC-7721
# Assay: Antiproliferative activity against human SMMC7721 cells after 24 to 72 hrs by MTT assay
# Type: functional, cell-based
row,SMILES,IC50 [µM]
1,CCn1cc(-c2nnc(SCC(=O)N/N=C/c3ccccc3O)o2)c(=O)c2cc(F)c(N3CCN(C)CC3)cc21,1.4 to 52.3
2,CCn1cc(-c2nnc(SCC(=O)N/N=C/c3ccccc3C(=O)O)o2)c(=O)c2cc(F)c(N3CCN(C)CC3)cc21,1.4 to 52.3
3,CCn1cc(-c2nnc(SCC(=O)N/N=C/c3ccc4c(c3)OCO4)o2)c(=O)c2cc(F)c(N3CCN(C)CC3)cc21,1.4 to 52.3
4,CCn1cc(-c2nnc(SCC(=O)N/N=C/c3ccccc3OC)o2)c(=O)c2cc(F)c(N3CCN(C)CC3)cc21,1.4 to 52.3
5,CCn1cc(-c2nnc(SCC(=O)N/N=C/c3ccc(Cl)cc3)o2)c(=O)c2cc(F)c(N3CCN(C)CC3)cc21,1.4 to 52.3
6,CCn1cc(-c2nnc(SCC(=O)N/N=C/c3cc(OC)c(OC)c(OC)c3)o2)c(=O)c2cc(F)c(N3CCN(C)CC3)cc21,1.4 to 52.3
7,CCn1cc(-c2nnc(SCC(=O)N/N=C/c3ccc(C(=O)O)cc3)o2)c(=O)c2cc(F)c(N3CCN(C)CC3)cc21,1.4 to 52.3
8,CCn1cc(-c2nnc(SCC(=O)N/N=C/c3ccc(C#N)cc3)o2)c(=O)c2cc(F)c(N3CCN(C)CC3)cc21,1.4 to 52.3
9,CCn1cc(-c2nnc(SCC(=O)N/N=C/c3ccc(OC)cc3)o2)c(=O)c2cc(F)c(N3CCN(C)CC3)cc21,1.4 to 52.3
10,CCn1cc(-c2nnc(SCC(=O)N/N=C/c3ccc(F)cc3)o2)c(=O)c2cc(F)c(N3CCN(C)CC3)cc21,1.4 to 52.3

# Tested on: L1210
# Assay: Antiproliferative activity against mouse L1210 cells after 24 to 72 hrs by MTT assay
# Type: functional, cell-based
row,SMILES,IC50 [µM]
1,CCn1cc(-c2nnc(SCC(=O)N/N=C/c3ccccc3O)o2)c(=O)c2cc(F)c(N3CCN(C)CC3)cc21,1.4 to 52.3
2,CCn1cc(-c2nnc(SCC(=O)N/N=C/c3ccccc3C(=O)O)o2)c(=O)c2cc(F)c(N3CCN(C)CC3)cc21,1.4 to 52.3
3,CCn1cc(-c2nnc(SCC(=O)N/N=C/c3ccc4c(c3)OCO4)o2)c(=O)c2cc(F)c(N3CCN(C)CC3)cc21,1.4 to 52.3
4,CCn1cc(-c2nnc(SCC(=O)N/N=C/c3ccccc3OC)o2)c(=O)c2cc(F)c(N3CCN(C)CC3)cc21,1.4 to 52.3
5,CCn1cc(-c2nnc(SCC(=O)N/N=C/c3ccc(Cl)cc3)o2)c(=O)c2cc(F)c(N3CCN(C)CC3)cc21,1.4 to 52.3
6,CCn1cc(-c2nnc(SCC(=O)N/N=C/c3cc(OC)c(OC)c(OC)c3)o2)c(=O)c2cc(F)c(N3CCN(C)CC3)cc21,1.4 to 52.3
7,CCn1cc(-c2nnc(SCC(=O)N/N=C/c3ccc(C(=O)O)cc3)o2)c(=O)c2cc(F)c(N3CCN(C)CC3)cc21,1.4 to 52.3
8,CCn1cc(-c2nnc(SCC(=O)N/N=C/c3ccc(C#N)cc3)o2)c(=O)c2cc(F)c(N3CCN(C)CC3)cc21,1.4 to 52.3
9,CCn1cc(-c2nnc(SCC(=O)N/N=C/c3ccc(OC)cc3)o2)c(=O)c2cc(F)c(N3CCN(C)CC3)cc21,1.4 to 52.3
10,CCn1cc(-c2nnc(SCC(=O)N/N=C/c3ccc(F)cc3)o2)c(=O)c2cc(F)c(N3CCN(C)CC3)cc21,1.4 to 52.3

# Tested on: HL-60
# Assay: Antiproliferative activity against human HL60 cells after 24 to 72 hrs by MTT assay
# Type: functional, cell-based
row,SMILES,IC50 [µM]
1,CCn1cc(-c2nnc(SCC(=O)N/N=C/c3ccccc3O)o2)c(=O)c2cc(F)c(N3CCN(C)CC3)cc21,1.4 to 52.3
2,CCn1cc(-c2nnc(SCC(=O)N/N=C/c3ccccc3C(=O)O)o2)c(=O)c2cc(F)c(N3CCN(C)CC3)cc21,1.4 to 52.3
3,CCn1cc(-c2nnc(SCC(=O)N/N=C/c3ccc4c(c3)OCO4)o2)c(=O)c2cc(F)c(N3CCN(C)CC3)cc21,1.4 to 52.3
4,CCn1cc(-c2nnc(SCC(=O)N/N=C/c3ccccc3OC)o2)c(=O)c2cc(F)c(N3CCN(C)CC3)cc21,1.4 to 52.3
5,CCn1cc(-c2nnc(SCC(=O)N/N=C/c3ccc(Cl)cc3)o2)c(=O)c2cc(F)c(N3CCN(C)CC3)cc21,1.4 to 52.3
6,CCn1cc(-c2nnc(SCC(=O)N/N=C/c3cc(OC)c(OC)c(OC)c3)o2)c(=O)c2cc(F)c(N3CCN(C)CC3)cc21,1.4 to 52.3
7,CCn1cc(-c2nnc(SCC(=O)N/N=C/c3ccc(C(=O)O)cc3)o2)c(=O)c2cc(F)c(N3CCN(C)CC3)cc21,1.4 to 52.3
8,CCn1cc(-c2nnc(SCC(=O)N/N=C/c3ccc(C#N)cc3)o2)c(=O)c2cc(F)c(N3CCN(C)CC3)cc21,1.4 to 52.3
9,CCn1cc(-c2nnc(SCC(=O)N/N=C/c3ccc(OC)cc3)o2)c(=O)c2cc(F)c(N3CCN(C)CC3)cc21,1.4 to 52.3
10,CCn1cc(-c2nnc(SCC(=O)N/N=C/c3ccc(F)cc3)o2)c(=O)c2cc(F)c(N3CCN(C)CC3)cc21,1.4 to 52.3
